From US4820695A, “C-20-dihydro-deoxy-(cyclic amino)-derivatives of macrolide antibiotics” (priority 1987, dated 1989)
≈ marks a conversion by molar mass, not a printed value. Where two headings read alike, the source gives them in different places.

Experiments:
Staphyloccus aureus X1.1 = experiment: MIC, standard agar-dilution assay (Table IX); assay type: cell-based, Staphylococcus aureus; details: Staphylococcus aureus, read-out: MIC
[1] = test system: Staphylococcus aureus V41; experiment: MIC, standard agar-dilution assay (Table IX); assay type: cell-based; details: Staphylococcus aureus V41, Penicillin-resistant strain, read-out: MIC
[2] = test system: Staphylococcus aureus X400; experiment: MIC, standard agar-dilution assay (Table IX); assay type: cell-based; details: Staphylococcus aureus X400, Methicillin-resistant strain, read-out: MIC
[3] = test system: Staphylococcus aureus S13E; experiment: MIC, standard agar-dilution assay (Table IX); assay type: cell-based; details: Staphylococcus aureus, S13E
[4] = test system: Staphylococcus epidermidis EPI1; experiment: MIC, standard agar-dilution assay (Table IX); assay type: cell-based
[5] = test system: Staphylococcus epidermidis 222; experiment: MIC, standard agar-dilution assay (Table IX); assay type: cell-based; details: read-out: MIC
[6] = test system: Streptococcus pyogenes C203; experiment: MIC, standard agar-dilution assay (Table IX); assay type: cell-based; details: read-out: MIC
[7] = test system: Streptococcus pneumoniae Park I; experiment: MIC, standard agar-dilution assay (Table IX); assay type: cell-based
[8] = test system: Streptococcus Group D X66; experiment: MIC, standard agar-dilution assay (Table IX); assay type: cell-based; details: read-out: MIC
[9] = test system: Streptococcus Group D 2041; experiment: MIC, standard agar-dilution assay (Table IX); assay type: cell-based; details: GROUPD2041, read-out: MIC
[10] = test system: Haemophilus influenzae C.L.; experiment: MIC, standard agar-dilution assay (Table IX); assay type: cell-based; details: Ampicillin-sensitive strain, read-out: MIC
[11] = test system: Haemophilus influenzae 76; experiment: MIC, standard agar-dilution assay (Table IX); assay type: cell-based; details: Haemophilus influenzae 76, Ampicillin-resistant strain, read-out: MIC
Escherichia coli N10 = experiment: MIC, standard agar-dilution assay (Table IX); assay type: cell-based; details: read-out: MIC
Escherichia coli EC14 = experiment: MIC, standard agar-dilution assay (Table IX); assay type: cell-based; details: read-out: MIC
Escherichia coli TEM = experiment: MIC, standard agar-dilution assay (Table IX); assay type: cell-based; details: read-out: MIC
Klebsiella X26 = experiment: MIC, standard agar-dilution assay (Table IX); assay type: cell-based; details: read-out: MIC
[12] = test system: Mycoplasma gallisepticum 29C; experiment: MIC, broth-dilution microtiter test (Table X); assay type: cell-based; details: Mycoplasmoides gallisepticum, read-out: MIC
Source text: (§1) The MIC's in Table X were obtained using conventional broth-dilution microtiter tests.

[13] = test system: Mycoplasma hyopneumoniae S5972; experiment: MIC, broth-dilution microtiter test (Table X); assay type: cell-based; details: Mesomycoplasma hyopneumoniae, read-out: MIC
Source text: as §1

Mycoplasma hyorhinis 29E = experiment: MIC, broth-dilution microtiter test (Table X); assay type: cell-based; details: read-out: MIC
Source text: as §1

Mycoplasma synoviae 40A = experiment: MIC, broth-dilution microtiter test (Table X); assay type: cell-based; details: Mycoplasmopsis synoviae, read-out: MIC
Source text: as §1

[14] = test system: Pasteurella hemolytica 22C; experiment: MIC, broth-dilution microtiter test (Table X); assay type: cell-based; details: read-out: MIC
Source text: as §1

[15] = test system: Pasteurella multocida 17E; experiment: MIC, broth-dilution microtiter test (Table X); assay type: cell-based; details: Bovine isolate, read-out: MIC
Source text: as §1

[16] = test system: Pasteurella multocida 60A; experiment: MIC, broth-dilution microtiter test (Table X); assay type: cell-based; details: Avian isolate, read-out: MIC
Source text: as §1

Staphylococcus aureus = experiment: MIC, broth-dilution microtiter test (Table X); assay type: cell-based; details: read-out: MIC
Source text: as §1

Streptococcus sp. 19F = experiment: MIC, broth-dilution microtiter test (Table X); assay type: cell-based; details: read-out: MIC
Source text: as §1

[17] = Titratable groups in 66% aqueous DMF (Tables XIV-XVI); assay type: physicochemical; details: 66% aqueous DMF
Source text: ^c Run in 66% aqueous DMF
^d Run in 66% aqueous DMF

[18] = test system: Streptococcus pyogenes C203; experiment: ED50 in mice experimentally infected with S. pyogenes C203 (Table XI); assay type: in vivo; details: doses given 1 and 4 hours postinfection
Experimental: The C-20 modified derivatives of this invention have shown in vivo antimicrobial activity against experimentally-induced infections in laboratory animals. When two doses of test compound were administered to mice experimentally infected with S. pyogenes C203, the activity observed was measured as an ED50 value [effective dose in mg/kg to protect 50% of the test animals: see Warren Wick, et al., J. Bacteriol. 81, 233-235 (1961)].
^a mg/kg × 2; doses given 1 and 4 hours postinfection

[19] = Staphylococcus epidermidis EPI1, agar-dilution, read-out: MIC
[20] = Streptococcus pneumoniae Park I, agar-dilution, read-out: MIC
[21] = Streptococcus pyogenes, C203, Oral, read-out: ED50
[22] = Streptococcus pyogenes, C203, sc, Subcutaneous, read-out: ED50

| Structure (SMILES) | MIC (Staphyloccus aureus X1.1) [µg/mL] | MIC [1] [µg/mL] | MIC [2] [µg/mL] | MIC [3] [µg/mL] | MIC [4, 19] [µg/mL] | MIC [5] [µg/mL] | MIC [6] [µg/mL] | MIC [7, 20] [µg/mL] | MIC [8] [µg/mL] | MIC [9] [µg/mL] | MIC [10] [µg/mL] | MIC [11] [µg/mL] | MIC (Escherichia coli N10) [µg/mL] | MIC (Escherichia coli EC14) [µg/mL] | MIC (Escherichia coli TEM) [µg/mL] | MIC (Klebsiella X26) [µg/mL] | MIC [12] [µg/mL] | MIC [13] [µg/mL] | MIC (Mycoplasma hyorhinis 29E) [µg/mL] | MIC (Mycoplasma synoviae 40A) [µg/mL] | further results |
| --- | --- | --- | --- | --- | --- | --- | --- | --- | --- | --- | --- | --- | --- | --- | --- | --- | --- | --- | --- | --- | --- |
| CCC1OC(=O)CC(O)C(C)C(OC2OC(C)C(OC3CC(C)(O)C(O)C(C)O3)C(N(C)C)C2O)C(CCN2CCCCCCC2)CC(C)C(=O)C=CC(C)=CC1COC1OC(C)C(O)C(O)C1OC (stereo not drawn) [Compound M4, 20-DH-DO-20-(octahydroazocin-1-yl)macrocin] | 4 (≈ 4 µM) | 4 (≈ 4 µM) | 8 (≈ 8.01 µM) | 4 (≈ 4 µM) | 4 (≈ 4 µM) | 2 (≈ 2 µM) | 2 (≈ 2 µM) | 32 (≈ 32 µM) | > 128 | > 128 | 128 (≈ 128 µM) | 128 (≈ 128 µM) | > 128 | > 128 | > 128 | > 128 | 3.12 (≈ 3.12 µM) | 6.25 (≈ 6.25 µM) | > 50 | 6.25 (≈ 6.25 µM) | MIC [14]: > 50 µg/mL; MIC [15]: > 50 µg/mL; MIC [16]: > 50 µg/mL; MIC (Staphylococcus aureus): 12.5 µg/mL (≈ 12.5 µM); MIC (Streptococcus sp. 19F): 12.5 µg/mL (≈ 12.5 µM); pKa ([17]; read-out: Titratable groups): 9.25; pKa ([17]; read-out: Titratable groups (first value)): 6.9 |
| CCC1OC(=O)CC(O)C(C)C(OC2OC(C)C(O)C(N(C)C)C2O)C(CCN2CC(C)CC(C)C2)CC(C)C(=O)C=CC(C)=CC1COC1OC(C)C(O)C(OC)C1OC (racemic) [Compound D35] |  |  |  |  |  |  |  |  |  |  |  |  |  |  |  |  |  |  |  |  | ED50 ([18]; Oral): 10.93 mg/kg × 2; ED50 ([18]; Subcutaneous): 0.88 mg/kg × 2 |
| CCC1OC(=O)CC(O)C(C)C(OC2OC(C)CC(N(C)C)C2O)C(CCN2CCCCCC2)CC(C)C(=O)C=CC(C)=CC1COC1OC(C)C(O)C(OC)C1OC (stereo not drawn) [Compound D5a, 20-DH-DO-20-(Hexahydroazepin-1-yl)-4'-deoxydesmycosin] | 0.5 (≈ 0.596 µM) | 0.5 (≈ 0.596 µM) | 1 (≈ 1.19 µM) | 0.5 (≈ 0.596 µM) | 0.5 (≈ 0.596 µM) | 0.25 (≈ 0.298 µM) | 0.25 (≈ 0.298 µM) | 0.25 (≈ 0.298 µM) | 2 (≈ 2.38 µM) | 2 (≈ 2.38 µM) | 8 (≈ 9.53 µM) | 8 (≈ 9.53 µM) | 64 (≈ 76.3 µM) | 128 (≈ 153 µM) | 8 (≈ 9.53 µM) | 8 (≈ 9.53 µM) | 0.78 (≈ 0.93 µM) | 0.195 (≈ 0.232 µM) | 3.12 (≈ 3.72 µM) | 0.195 (≈ 0.232 µM) | MIC [14]: 3.12 µg/mL (≈ 3.72 µM); MIC [15]: 6.25 µg/mL (≈ 7.45 µM); MIC [16]: 3.12 µg/mL (≈ 3.72 µM); MIC (Staphylococcus aureus): 0.39 µg/mL (≈ 0.465 µM); MIC (Streptococcus sp. 19F): 0.78 µg/mL (≈ 0.93 µM); ED50 [18, 21]: 34 mg/kg; ED50 [18, 22]: 1.5 mg/kg |
| CCC1OC(=O)CC(O)C(C)C(OC2OC(C)C(O)C(N(C)C)C2O)C(CCN2CCCC(C)(C)C2)CC(C)C(=O)C=CC(C)=CC1COC1OC(C)C(O)C(OC)C1OC (stereo not drawn) [Compound D40, 20-DH-DO-20-(3,3-dimethylpiperidin-1-yl)desmycosin] | 0.5 (≈ 0.575 µM) | 0.5 (≈ 0.575 µM) | 0.5 (≈ 0.575 µM) | 0.5 (≈ 0.575 µM) | 0.5 (≈ 0.575 µM) | 0.25 (≈ 0.288 µM) | 0.25 (≈ 0.288 µM) | 2 (≈ 2.3 µM) | 4 (≈ 4.6 µM) | 8 (≈ 9.2 µM) | 4 (≈ 4.6 µM) | 8 (≈ 9.2 µM) | 64 (≈ 73.6 µM) | 64 (≈ 73.6 µM) | 16 (≈ 18.4 µM) | 16 (≈ 18.4 µM) |  |  |  |  |  |
| CCC1OC(=O)CC(O)C(C)C(OC2OC(C)C(OC3CC(C)(O)C(O)C(C)O3)C(N(C)C)C2O)C(CCN2CC3CCC(CC3)C2)CC(C)C(=O)C=CC(C)=CC1COC1OC(C)C(O)C(OC)C1OC (stereo not drawn) [Compound T13, 20-DH-DO-20-(3-azabicyclo[3.2.2]nonan-3-yl)tylosin] | 4 (≈ 3.9 µM) | 4 (≈ 3.9 µM) | 8 (≈ 7.8 µM) | 4 (≈ 3.9 µM) |  | 2 (≈ 1.95 µM) | 4 (≈ 3.9 µM) |  | 128 (≈ 125 µM) | > 128 | 128 (≈ 125 µM) | 128 (≈ 125 µM) | > 128 | > 128 | > 128 | > 128 | 1.56 (≈ 1.52 µM) | 25 (≈ 24.4 µM) | > 50 | 1.56 (≈ 1.52 µM) | MIC ([4]; Staphylococcus epidermidis, EPI1): 4 µg/mL (≈ 3.9 µM); MIC ([7]; Streptococcus pneumoniae): 16 µg/mL (≈ 15.6 µM); MIC [14]: 50 µg/mL (≈ 48.8 µM); MIC [15]: > 50 µg/mL; MIC [16]: > 50 µg/mL; MIC (Staphylococcus aureus): 6.25 µg/mL (≈ 6.1 µM); MIC (Streptococcus sp. 19F): 50 µg/mL (≈ 48.8 µM); ED50 [18, 21]: 30 mg/kg; ED50 [18, 22]: > 10 mg/kg |
| CCC1OC(=O)CC(O)C(C)C(OC2OC(C)C(OC3CC(C)(O)C(O)C(C)O3)C(N(C)C)C2O)C(CCN2CCCCCCC2)CC(C)C(=O)C=CC(C)=CC1COC1OC(C)C(O)C(OC)C1OC (stereo not drawn) [Compound T6, 20-DH-DO-20-(octahydroazocin-1-yl)tylosin] | 4 (≈ 3.95 µM) | 4 (≈ 3.95 µM) | 8 (≈ 7.89 µM) | 4 (≈ 3.95 µM) | 4 (≈ 3.95 µM) | 2 (≈ 1.97 µM) | 2 (≈ 1.97 µM) | 8 (≈ 7.89 µM) | > 128 | > 128 | 64 (≈ 63.2 µM) | > 128 | > 128 | > 128 | > 128 | > 128 | 3.12 (≈ 3.08 µM) | 12.5 (≈ 12.3 µM) | > 50 | 0.78 (≈ 0.77 µM) | MIC [14]: 50 µg/mL (≈ 49.3 µM); MIC [15]: > 50 µg/mL; MIC [16]: > 50 µg/mL; MIC (Staphylococcus aureus): 12.5 µg/mL (≈ 12.3 µM); MIC (Streptococcus sp. 19F): 50 µg/mL (≈ 49.3 µM); ED50 [18, 21]: 44 mg/kg; ED50 [18, 22]: > 10 mg/kg |
